pIC50: −log10 of the molar value.
Target: T1, CDK2 (Homo sapiens, UniProt P24941)
T1 construct: made in house; host or cells: Sf21 insect cells (stated for the CDK2/Cyclin E option; by analogy to CDK4/Cyclin D1 baculovirus co-infection)
Test: CDK2 inhibition assay (in vitro kinase SPA, by analogy to the CDK4 assay)
Format: biochemical
Conditions: read-out: CDK2 inhibitory activity IC50
Procedure: The compounds were tested in an in vitro kinase assay in 96 well format using Scintillation Proximity Assay (SPA—obtained from Amersham) for measuring incorporation of [γ-33-P]-Adenosine Triphosphate into a test substrate (GST-Retinoblastoma). In each well was placed the compound to be tested (diluted in DMSO and water to correct concentrations) and in control wells either p16 as an inhibitor control or DMSO as a positive control.
Approximately 0.5 μl of CDK4/Cyclin D1 partially-purified enzyme (amount dependent on enzyme activity) diluted in 25 μl incubation buffer was added to each well then 20 μl of GST-Rb/ATP/ATP33 mixture (containing 0.5 μg GST-Rb and 0.2 μM ATP and 0.14 μCi [γ-33-P]-Adenosine Triphosphate), and the resulting mixture shaken gently, then incubated at room temperature for 60 minutes.
To each well was then added 150 μL stop solution containing (0.8 mg/well of Protein A-PVT SPA bead (Amersham)), 20 pM/well of Anti-Glutathione Transferase, Rabbit IgG (obtained from Molecular Probes), 61 mM EDTA and 50 mM HEPES pH 7.5 containing 0.05% sodium azide.
The plates were sealed with Topseal-S plate sealers, left for two hours then spun at 2500 rpm, 1124×g., for 5 minutes. The plates were read on a Topcount for 30 seconds per well. […]

Molecule `N#Cc1ccccc1Nc1nc(Nc2ccc(S(N)(=O)=O)cc2)ncc1Cl` [Example 23, 2-(4-Sulphamoylanilino)-4-(2-cyanoanilino)-5-chloropyrimidine] has a pIC50 of 6.46.
